# According to US9234018B2, “Compositions and methods for the treatment of VprBP-related cancers” (University of Southern California, priority 2013, dated 2016):
# Assays:
# PKN2 = PKN2 (Homo sapiens, UniProt Q16513); assay: Kinase selectivity panel; assay type: biochemical
# H2AT120p in DU145 cells = assay: Cellular H2AT120p by western blotting and immunostaining; assay type: cell-based, human
# Procedure: To this end, Applicants' inhouse small-molecule library of 5,000 compounds was screened. […] To evaluate their cellular effects, DU145 cells were treated with the compounds in the concentration range of […] for 24 hr. […] Thus, although Applicants cannot exclude the possibility that other kinases that were not included in the selectivity screen might be affected, B32B3 can be defined as a highly specific VprBP inhibitor at present.
# The levels of VprBP and H2AT120p in tumors tissues were determined in FDA human tumor organ tissue microarray, which includes 16 types of organ cancer with matched or unmatched adjacent normal tissue (US Biomax, Inc). The formalin-fixed, paraffin-embedded sections were blocked by treating with blocking reagent (50 mM Tris-HCl, pH 7.5, 150 mM NaCl, 0.3% Triton X-100, and 5% normal goat serum) for 30 min at room temperature and incubated with VprBP and H2AT120p antibodies at 4° C. overnight. Immunodetection was performed using ABC reagent (Vectorstain). DAB (Vector Lab) was used for color development and hematoxylin (Sigma) was used for counterstaining. The intensity and distribution patterns of staining were evaluated by semiquantitative immunohistochemical assessment. The intensity of staining was graded from − to +++ (−, no staining; +, weak staining; ++, moderate staining; and +++, strong staining) The distribution of staining was classified from 0 to 3 (0, 0-20%; 1, 21-50%; 2, 51-80%; 3, 81-100%). For immunofluorescence of DU145 cells, cells were treated with DMSO or B32B3 (0.5 μM) for 24 h and fixed with 4% paraformaldehyde for 15 min. The corresponding samples were permeabilized with 0.3% Triton X-100 for 15 min and immunostained with H2AT120p antibody.
# CHK1 = CHK1 (Homo sapiens, UniProt O14757); assay: Kinase selectivity panel; assay type: biochemical
# EEF2K = EEF2K (Homo sapiens, UniProt O00418); assay: Kinase selectivity panel; assay type: biochemical
# SYK = SYK (Homo sapiens, UniProt P43405); assay: Kinase selectivity panel; assay type: biochemical
# CSK1E = CSK1E (Homo sapiens, UniProt P49674); assay: Kinase selectivity panel; assay type: biochemical
# BCK = assay: Kinase selectivity panel; assay type: biochemical, human
# GSK3β = GSK3β (Homo sapiens, UniProt P49841); assay: Kinase selectivity panel; assay type: biochemical
# DNAPK = DNAPK (Homo sapiens, UniProt P78527); assay: Kinase selectivity panel; assay type: biochemical
# CDK7 = CDK7 (Homo sapiens, UniProt P50613); assay: Kinase selectivity panel; assay type: biochemical
# DU145 cells = assay: Cell proliferation (MTT) and soft agar colony formation; assay type: cell-based, human; settings: MTT 72 h and soft agar colonies
# Procedure: Cell proliferation was assessed by the 3-(4,5-dimethylthiazol-2-yl)-2,5-diphenyltetrazolium bromide (MTT) assay as previously described (Kim, K. et al. (2012) Mol. Cell Biol. 32:783-796). To evaluate IC50 of compound B32B3 and B20H6, DU145 cells were treated with various concentrations (0.001, 0.005, 0.01, 0.05, 0.1, 1, 5, 10, and 20 μM) of compounds for 72 h and viability was measured by MTT assays. For soft agar colony formation assays, DU145 cells were treated with B32B3 (0.5, 1, and 3 μM). Cells were suspended in semisolid medium (DMEM 10% FBS plus 0.3% ultra pure noble agar) at concentrations of 2×10^5 cells/ml, added over a layer of 0.6% agar in RPMI on 35 mm plate and incubated for an additional 21 days. The colonies in each well were stained with 0.005% crystal violet in 20% ethanol, counted and photographed. All assays were run in triplicate, and results presented are the average of three individual experiments.
# DYRK1 = DYRK1 (Homo sapiens, UniProt Q13627); assay: Kinase selectivity panel; assay type: biochemical
# MLC cells = assay: Cell viability by MTT assay in normal cells; assay type: cell-based; settings: concentrations up to 5 mM, 24 h; cells lacking VprBP-mediated H2AT120p
# Procedure: FIGS. 8A-8I show characterization of B32B3 as a small-molecule VprBP kinase inhibitor, related to FIG. 4. (FIG. 8A) DU145 cells were infected with mock lentiviruse, VprBP-expressing shRNA lentivirus or Flag-VprBP-expressing lentivirus, and treated with the indicated concentrations of B32B3 for 24 h. Changes in H2AT120p as the results of B32B3 treatment were determined by the quantitative estimates of Western band intensity. Results represent the means±S.D. of three independent experiments. (FIG. 8B) DU145 cells were treated with the indicated concentrations of B32B3 and B20H6 for 72 h. Cell viability was measured by the MTT assay and was normalized to cells not exposed to the compounds. Data represent the means±S.D. of three independent experiments. […] (FIG. 8D) MLC cells were treated with B32B3 at the indicated doses for 24 h, and cell viability was assessed by MTT assay. […] (FIG. 8E) VprBP-mediated H2AT120p was analyzed in the presence of increasing concentrations of ATP and B32B3. (FIG. 8F) Body weights of vehicle or B32B3-treated mice were monitored during the treatment period. […] The stability of B32B3 in plasma was determined by LC-MS/MS at the indicated time points. […] Blood samples were collected at the indicated time points, and the concentration of B32B3 in plasma was analyzed by HPLC coupled mass spectrophotometry. […]
# STK25 = STK25 (Homo sapiens, UniProt O00506); assay: Kinase selectivity panel; assay type: biochemical
# CDK2 = CDK2 (Homo sapiens, UniProt P24941); assay: Kinase selectivity panel; assay type: biochemical
# Chain of PKN2 (Q16513 whole entry): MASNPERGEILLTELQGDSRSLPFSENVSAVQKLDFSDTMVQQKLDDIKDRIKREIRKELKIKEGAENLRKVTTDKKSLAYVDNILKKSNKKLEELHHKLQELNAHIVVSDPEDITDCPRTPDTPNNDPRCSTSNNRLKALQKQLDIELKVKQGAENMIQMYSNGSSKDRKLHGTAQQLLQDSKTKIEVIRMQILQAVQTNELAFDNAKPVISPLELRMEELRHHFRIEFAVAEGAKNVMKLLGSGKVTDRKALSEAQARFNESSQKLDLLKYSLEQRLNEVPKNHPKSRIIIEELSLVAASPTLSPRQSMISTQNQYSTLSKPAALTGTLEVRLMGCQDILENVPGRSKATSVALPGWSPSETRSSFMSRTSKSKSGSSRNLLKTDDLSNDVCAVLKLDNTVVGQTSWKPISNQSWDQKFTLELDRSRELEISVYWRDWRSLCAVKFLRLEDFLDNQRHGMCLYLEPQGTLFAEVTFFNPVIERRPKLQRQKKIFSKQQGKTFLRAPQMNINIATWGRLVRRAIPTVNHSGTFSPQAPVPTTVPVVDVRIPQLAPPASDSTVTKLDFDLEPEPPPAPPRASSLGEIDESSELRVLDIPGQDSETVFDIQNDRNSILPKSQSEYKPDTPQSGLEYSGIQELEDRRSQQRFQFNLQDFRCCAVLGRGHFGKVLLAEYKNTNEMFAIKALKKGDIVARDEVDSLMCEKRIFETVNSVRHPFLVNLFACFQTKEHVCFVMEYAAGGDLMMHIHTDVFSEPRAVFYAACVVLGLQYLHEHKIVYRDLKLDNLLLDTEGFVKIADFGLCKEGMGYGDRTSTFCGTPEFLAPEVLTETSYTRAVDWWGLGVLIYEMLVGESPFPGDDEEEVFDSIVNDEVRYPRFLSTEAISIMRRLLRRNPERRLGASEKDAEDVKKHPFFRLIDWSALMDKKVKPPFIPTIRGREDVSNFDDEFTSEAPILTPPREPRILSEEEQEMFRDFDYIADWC
# Chain of CDK7 (P50613 whole entry): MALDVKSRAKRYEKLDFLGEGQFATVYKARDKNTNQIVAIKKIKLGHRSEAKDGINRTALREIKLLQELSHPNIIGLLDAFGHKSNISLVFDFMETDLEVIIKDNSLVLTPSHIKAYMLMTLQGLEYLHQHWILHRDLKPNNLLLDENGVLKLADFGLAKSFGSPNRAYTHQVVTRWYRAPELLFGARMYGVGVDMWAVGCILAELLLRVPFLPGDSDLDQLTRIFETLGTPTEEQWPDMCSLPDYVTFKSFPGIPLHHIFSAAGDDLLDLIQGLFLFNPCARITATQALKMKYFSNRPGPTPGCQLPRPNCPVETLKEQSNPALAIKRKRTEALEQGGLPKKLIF
# Chain of CDK7 (P51946 whole entry partner): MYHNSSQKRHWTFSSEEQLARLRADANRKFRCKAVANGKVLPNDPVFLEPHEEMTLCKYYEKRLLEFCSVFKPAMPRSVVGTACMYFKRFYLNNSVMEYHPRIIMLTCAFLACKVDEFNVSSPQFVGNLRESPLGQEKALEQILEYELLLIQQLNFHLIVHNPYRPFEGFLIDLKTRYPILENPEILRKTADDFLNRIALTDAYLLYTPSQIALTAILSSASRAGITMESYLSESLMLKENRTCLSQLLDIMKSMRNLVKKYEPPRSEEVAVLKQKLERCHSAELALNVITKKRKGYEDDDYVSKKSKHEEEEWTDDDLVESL
# Chain of CDK7 (P51948 whole entry partner): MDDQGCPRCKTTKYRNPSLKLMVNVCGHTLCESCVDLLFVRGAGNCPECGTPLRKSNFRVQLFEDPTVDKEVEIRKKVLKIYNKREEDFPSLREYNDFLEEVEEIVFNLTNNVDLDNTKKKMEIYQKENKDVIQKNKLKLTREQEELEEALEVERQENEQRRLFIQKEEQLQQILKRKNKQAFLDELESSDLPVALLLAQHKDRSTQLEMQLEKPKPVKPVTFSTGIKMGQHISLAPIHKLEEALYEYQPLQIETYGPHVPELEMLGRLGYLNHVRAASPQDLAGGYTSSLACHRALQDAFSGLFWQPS
# Chain of STK25 (O00506 whole entry): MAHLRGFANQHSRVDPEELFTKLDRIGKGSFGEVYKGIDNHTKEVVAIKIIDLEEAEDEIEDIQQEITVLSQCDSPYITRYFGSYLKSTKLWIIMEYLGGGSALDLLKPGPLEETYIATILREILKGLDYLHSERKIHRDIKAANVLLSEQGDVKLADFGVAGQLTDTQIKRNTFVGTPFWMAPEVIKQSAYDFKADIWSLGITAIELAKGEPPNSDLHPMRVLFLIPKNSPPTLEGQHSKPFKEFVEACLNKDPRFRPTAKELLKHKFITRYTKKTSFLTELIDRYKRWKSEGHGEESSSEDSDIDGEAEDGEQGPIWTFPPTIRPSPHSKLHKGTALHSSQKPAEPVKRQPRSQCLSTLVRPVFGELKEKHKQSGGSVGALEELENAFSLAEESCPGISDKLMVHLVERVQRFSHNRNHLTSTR
# Chain of CHK1 (O14757 whole entry): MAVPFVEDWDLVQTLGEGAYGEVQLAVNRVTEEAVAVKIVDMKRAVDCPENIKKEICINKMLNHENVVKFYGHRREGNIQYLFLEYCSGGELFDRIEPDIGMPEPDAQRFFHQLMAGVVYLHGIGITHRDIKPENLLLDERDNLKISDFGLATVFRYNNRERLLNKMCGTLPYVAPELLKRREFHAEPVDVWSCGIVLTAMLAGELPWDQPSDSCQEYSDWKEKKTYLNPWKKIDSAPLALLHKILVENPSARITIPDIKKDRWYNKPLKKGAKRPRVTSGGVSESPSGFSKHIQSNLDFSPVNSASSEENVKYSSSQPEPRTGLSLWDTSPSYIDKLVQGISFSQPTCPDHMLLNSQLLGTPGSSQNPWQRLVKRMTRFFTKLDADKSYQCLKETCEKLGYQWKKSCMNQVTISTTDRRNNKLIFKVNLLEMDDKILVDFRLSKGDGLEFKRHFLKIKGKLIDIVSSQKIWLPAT
# Chain of EEF2K (O00418 whole entry): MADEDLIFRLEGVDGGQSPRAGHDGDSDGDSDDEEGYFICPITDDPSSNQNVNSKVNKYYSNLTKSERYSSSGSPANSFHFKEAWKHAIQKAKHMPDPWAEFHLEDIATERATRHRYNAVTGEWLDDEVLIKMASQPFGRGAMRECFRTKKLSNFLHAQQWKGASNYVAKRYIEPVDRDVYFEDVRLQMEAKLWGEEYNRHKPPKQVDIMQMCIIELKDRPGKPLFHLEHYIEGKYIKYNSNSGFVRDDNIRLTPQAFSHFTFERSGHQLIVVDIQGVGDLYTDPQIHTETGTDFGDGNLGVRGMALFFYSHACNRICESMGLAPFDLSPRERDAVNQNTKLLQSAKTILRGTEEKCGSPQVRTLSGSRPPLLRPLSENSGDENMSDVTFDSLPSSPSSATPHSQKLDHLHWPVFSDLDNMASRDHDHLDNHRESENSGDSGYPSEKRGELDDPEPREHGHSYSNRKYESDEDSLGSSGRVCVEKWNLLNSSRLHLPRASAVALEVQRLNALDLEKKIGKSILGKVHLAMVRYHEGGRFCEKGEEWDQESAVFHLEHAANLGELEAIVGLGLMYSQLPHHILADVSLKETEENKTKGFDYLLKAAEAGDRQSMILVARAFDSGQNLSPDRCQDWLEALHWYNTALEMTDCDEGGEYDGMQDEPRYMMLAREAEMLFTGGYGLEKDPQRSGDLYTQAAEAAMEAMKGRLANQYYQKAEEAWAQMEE
# Chain of GSK3β (P49841 whole entry): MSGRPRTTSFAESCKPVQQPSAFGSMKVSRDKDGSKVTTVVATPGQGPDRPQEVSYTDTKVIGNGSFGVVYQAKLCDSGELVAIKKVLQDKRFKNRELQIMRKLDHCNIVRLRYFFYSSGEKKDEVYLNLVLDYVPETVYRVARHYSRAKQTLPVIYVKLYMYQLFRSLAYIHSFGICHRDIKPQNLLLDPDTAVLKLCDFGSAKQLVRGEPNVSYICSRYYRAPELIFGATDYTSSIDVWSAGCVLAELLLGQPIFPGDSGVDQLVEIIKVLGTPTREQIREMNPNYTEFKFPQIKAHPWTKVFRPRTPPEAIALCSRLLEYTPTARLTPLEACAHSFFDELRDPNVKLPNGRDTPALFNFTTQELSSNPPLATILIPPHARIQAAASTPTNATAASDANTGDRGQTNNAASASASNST
# Chain of CSK1E (P49674 whole entry): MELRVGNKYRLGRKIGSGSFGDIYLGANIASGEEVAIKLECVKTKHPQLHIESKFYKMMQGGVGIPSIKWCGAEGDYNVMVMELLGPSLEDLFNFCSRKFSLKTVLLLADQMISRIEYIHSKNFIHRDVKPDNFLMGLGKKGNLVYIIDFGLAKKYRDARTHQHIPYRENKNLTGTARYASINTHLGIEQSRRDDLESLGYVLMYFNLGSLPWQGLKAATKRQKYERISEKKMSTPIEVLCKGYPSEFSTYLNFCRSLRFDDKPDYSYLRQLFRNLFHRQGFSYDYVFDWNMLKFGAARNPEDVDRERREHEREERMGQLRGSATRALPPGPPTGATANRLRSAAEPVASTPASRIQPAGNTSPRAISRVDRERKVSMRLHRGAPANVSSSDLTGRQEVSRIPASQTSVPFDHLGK
structure (smiles),measurement,setting,value
c1ccc2c(CNNc3ncnc4sc5c(c34)CCCC5)c[nH]c2c1 [B32B3],IC50,PKN2,> 10 µM
same,Potency in cells overexpressing VprBP,"H2AT120p in DU145 cells; DU145 cells overexpressing VprBP, 24 h",considerably less potent
same,IC50,"H2AT120p in DU145 cells; Homo sapiens, DU-145, DU145 cells, 24 hr, 0-5 mM, read-out: IC50 for inhibition of H2AT120p",0.5 µM
same,Decrease in IC50 (H2AT120p) upon knockdown of VprBP,"H2AT120p in DU145 cells; VprBP-knockdown DU145 cells, 24 h",circa 2 fold
same,IC50,CHK1,> 10 µM
same,IC50,EEF2K,> 10 µM
same,IC50,SYK,> 10 µM
same,IC50,CSK1E,> 10 µM
same,IC50,BCK,> 10 µM
same,IC50,GSK3β,> 10 µM
same,IC50,DNAPK,> 10 µM
same,IC50,CDK7,> 10 µM
same,Effect on cell proliferation / cell growth,DU145 cells,inhibition of cell proliferation
same,IC50,DYRK1,> 10 µM
same,Effect on proliferation of MLC cells,MLC cells,minimally antagonized
same,IC50,STK25,> 10 µM
same,IC50,CDK2,> 10 µM
